{"source": "patent US10001483B2", "about": "“Methods for the treatment of Kaposi's sarcoma or KSHV-induced lymphoma using immunomodulatory compounds, and uses of biomarkers” (Celgene Corporation, priority 2015, dated 2018)", "key": {"[1]": {"system": "Kaposi sarcoma associated herpesvirus (KSHV/HHV8)", "assay": "KSHV viral load in PBMC by quantitative real-time PCR", "type": "in vivo", "protocol": "(§1) Aspirin at 81 mg daily was administered as thromboprophylaxis. Assessments were performed every 4 weeks for lymphocyte numbers, Kaposi sarcoma associated herpesvirus (KSHV/HHV8) viral load (VL) and HIV VL and at 8 weeks for T cell subsets and activation by immunophenotyping of peripheral blood mononuclear cells (PBMC). KSHV VL in PBMC and HIV VL in plasma were assayed by quantitative PCR; an ultrasensitive single copy assay was used for HIV VL. Changes from baseline were evaluated using the Wilcoxon signed rank test with P<0.005 considered significant given multiple comparisons. Differences in changes between the HIV infected and uninfected groups were evaluated using the Wilcoxon rank sum test. Median time of the patients on therapy 7 cycles (range 2-12).\n(§2) Laboratory Assays: Lymphocyte subsets were assessed by fluorescent-activated cell sorting using the BlueOcean platform (Beckman Coulter, Carlsbad, Calif.). Plasma HIV-1 […] was evaluated using an ultrasensitive assay whose sensitivity was 1 viral copy per plasma volume. Briefly, a triplex PCR was used using a modification of a previously reported assay with three primers: one spanning the start codon of gag, one in the gag coding region, and one internal control. Samples were tested from 6 mL plasma aliquots, with 12 replicants per sample. KSHV VL in peripheral blood mononuclear cells (PBMC) was assessed by quantitative real-time PCR.\n(§3) Changes in immunologic and virologic parameters were evaluated by a Wilcoxon signed rank test. Exact Wilcoxon rank sum tests were used to compare pharmacokinetic parameters at each time point and differences from baseline. All p-values are two-tailed and reported without adjustment for multiple comparisons. HRQL was analyzed using a using a mixed model repeated measures analysis for FAHI and the marginal homogeneity test for KS-specific questions"}, "HIV-1": {"system": "HIV-1", "assay": "Plasma HIV viral load by ultrasensitive single copy assay", "type": "in vivo", "protocol": "as §1, §2, §3"}, "lymphocyte subsets": {"system": "lymphocyte subsets", "assay": "Immunologic correlatives: lymphocyte numbers and T cell subsets/activation by immunophenotyping of PBMC", "type": "in vivo, human", "details": "for CD4 and CD8 counts: week 4 and week 8 of therapy", "protocol": "as §1, §2, §3"}, "[2]": {"assay": "Pharmacokinetic studies: plasma concentrations of pomalidomide in KS patients (HPLC with fluorescence detection)", "type": "in vivo, human", "protocol": "A non-compartmental analysis was used to calculate plasma pharmacokinetic parameters (Pharsight Corp, Mountain View, Calif.). The maximum plasma concentration (CMAX) and time to CMAX (TMAX) were recorded as observed values; the area under the plasma concentration vs time curve (AUC) was calculated using the log-linear trapezoidal method. For day 1 of cycle 1 (C1D1), the AUC extrapolated to infinity (AUCINF) was used, unless the percent extrapolated exceeded 25%, in which case AUCLAST (to the last quantifiable time point) was used. The steady-state exposure on C1D15 was calculated using AUCLAST.\nPharmacokinetic Studies were performed pre-dose on cycle 1 day 1 and day 15. Across all analyzed doses: TMAX=2.71±1.73 hrs, T1/2=7.10±2.48 hours, and CMAX=61.21±29.30 ng/mL. […] Comparing HIV infected with non-infected subjects, for CMAX at C1D1 p=0.45, at C1D15 p=0.80 at C1D15 and comparing changes from baseline p=0.91; for AUCLAST at C1D1, p=0.63; at C1D15 p=0.97 and comparing changes from baseline p=0.91."}, "[3]": {"details": "restricted to the 15 HIV positive subjects, paired data for 10-13 patients"}, "[4]": {"details": "human, po, plasma, across all analyzed doses, cycle 1 day 1 and day 15, 5 mg orally"}}, "note": "Entries after “also recorded” stand apart in the source; their conditions may differ. Marks after values point to notes of the source that are not given here.", "data": [{"compound": "Nc1cccc2c1C(=O)N(C1CCC(=O)NC1=O)C2=O", "note": "(stereo not shown) [pomalidomide, 4-amino-2-(2,6-dioxopiperidin-3-yl)isoindoline-1,3-dione]", "values": [{"measurement": "KSHV VL (copies/PBMC) Change to End Therapy (Med, range)", "setting": "[1]; median change from baseline", "value": 0, "unit": "copies/PBMC"}, {"measurement": "KSHV VL (copies/PBMC) Change to Week 8 (Med, range)", "setting": "[1]; median change from baseline", "value": 0, "unit": "copies/PBMC"}, {"measurement": "KSHV VL (copies/PBMC) Change to Week 4 (Med, range)", "setting": "[1]; median change from baseline 0", "value": "0^† copies/PBMC"}, {"measurement": "subjects whose KSHV VL became detectable from undetectable", "setting": "[1]; week 4, 8 subjects", "value": 35, "unit": "%"}, {"measurement": "subjects showing an increase in KSHV VL in PBMCs", "setting": "[1]; week 4, 10 subjects", "value": 45, "unit": "%"}, {"measurement": "KSHV VL", "setting": "[1]; week 4, not sustained at week 8", "value": "transient increase; also recorded: significant increase"}, {"measurement": "HIV VL", "setting": "HIV-1; plasma, ultrasensitive single copy assay", "value": "no significant change"}, {"measurement": "Plasma HIV VL (copies/mL) Change to End Therapy (Med, range)", "setting": "HIV-1; [3]", "value": "−0.5", "unit": "copies/mL"}, {"measurement": "Plasma HIV VL (copies/mL) Change to Week 8 (Med, range)", "setting": "HIV-1; [3]", "value": "+0.75 copies/mL"}, {"measurement": "Plasma HIV VL (copies/mL) Change to Week 4 (Med, range)", "setting": "HIV-1; restricted to the 15 HIV positive subjects, paired data for 10-13 patients, baseline 1.5", "value": "+0.3 copies/mL"}, {"measurement": "CD19 B-cells", "setting": "lymphocyte subsets; during therapy", "value": "decline; also recorded: reversible decrease"}, {"measurement": "NK cells", "setting": "lymphocyte subsets; during therapy", "value": "no significant change"}, {"measurement": "Ki67 or PD-1 expression in CD4 or CD8 cells", "setting": "lymphocyte subsets; in vivo", "value": "no significant changes"}, {"measurement": "difference between HIV infected and uninfected patient groups in observed effects (cell number and phenotype)", "setting": "lymphocyte subsets; in vivo", "value": "no significant difference"}, {"measurement": "CD3 (cells/μL) Change to End Therapy (Med, range)", "setting": "lymphocyte subsets; median change from baseline", "value": "+11 cells/μL"}, {"measurement": "CD3 (cells/μL) Change to Week 8 (Med, range)", "setting": "lymphocyte subsets; median change from baseline", "value": "+190 cells/μL"}, {"measurement": "CD4 (cells/μL) Change to End Therapy (Med, range)", "setting": "lymphocyte subsets; median change from baseline", "value": "−46", "unit": "cells/μL"}, {"measurement": "CD4 (cells/μL) Change to Week 8 (Med, range)", "setting": "lymphocyte subsets; median change from baseline", "value": "+40 cells/μL"}, {"measurement": "CD8 (cells/μL) Change to End Therapy (Med, range)", "setting": "lymphocyte subsets; median change from baseline", "value": 104, "unit": "cells/μL"}, {"measurement": "CD8 (cells/μL) Change to Week 8 (Med, range)", "setting": "lymphocyte subsets; median change from baseline", "value": "+142 cells/μL"}, {"measurement": "CD19 (cells/μL) Change to End Therapy (Med, range)", "setting": "lymphocyte subsets; median change from baseline", "value": "−87", "unit": "cells/μL"}, {"measurement": "CD19 (cells/μL) Change to Week 8 (Med, range)", "setting": "lymphocyte subsets; median change from baseline", "value": "−70", "unit": "cells/μL"}, {"measurement": "NK (cells/μL) Change to End Therapy (Med, range)", "setting": "lymphocyte subsets; median change from baseline", "value": 10, "unit": "cells/μL"}, {"measurement": "NK (cells/μL) Change to Week 8 (Med, range)", "setting": "lymphocyte subsets; median change from baseline", "value": "−6", "unit": "cells/μL"}, {"measurement": "CD19 (cells/μL) Change to Week 4 (Med, range)", "setting": "lymphocyte subsets; median change from baseline 141", "value": "−35", "unit": "cells/μL"}, {"measurement": "NK (cells/μL) Change to Week 4 (Med, range)", "setting": "lymphocyte subsets; median change from baseline 178", "value": "+23 cells/μL"}, {"measurement": "CD4 (cells/μL) Change to Week 4 (Med, range)", "setting": "lymphocyte subsets; median change from baseline 440", "value": "+108 cells/μL"}, {"measurement": "CD8 (cells/μL) Change to Week 4 (Med, range)", "setting": "lymphocyte subsets; median change from baseline 500", "value": "+101 cells/μL"}, {"measurement": "CD3 (cells/μL) Change to Week 4 (Med, range)", "setting": "lymphocyte subsets; median change from baseline 1184", "value": "+275 cells/μL"}, {"measurement": "CD4 Subsets 38+ DR+: Absolute Change in % at Week 8 (med, range)", "setting": "lymphocyte subsets; median, baseline 2.5 %", "value": "+2%"}, {"measurement": "CD4 Subsets RO− 27− (E): Absolute Change in % at Week 8 (med, range)", "setting": "lymphocyte subsets; median, baseline 3.3 %", "value": "−1.5", "unit": "%"}, {"measurement": "CD4 Subsets 57+: Absolute Change in % at Week 8 (med, range)", "setting": "lymphocyte subsets; median, baseline 6.3 %", "value": "−1.34", "unit": "%"}, {"measurement": "CD8 Subsets 38+ DR+: Absolute Change in % at Week 8 (med, range)", "setting": "lymphocyte subsets; median, baseline 8.0 %", "value": "+8.5%"}, {"measurement": "CD4 Subsets HLA DR+: Absolute Change in % at Week 8 (med, range)", "setting": "lymphocyte subsets; median, baseline 8.9 %", "value": "+8.3%"}, {"measurement": "CD4 Subsets RO+ 27− (EM): Absolute Change in % at Week 8 (med, range)", "setting": "lymphocyte subsets; median, baseline 16.7 %", "value": "+1.7%"}, {"measurement": "CD8 Subsets RO+ 27+ (CM): Absolute Change in % at Week 8 (med, range)", "setting": "lymphocyte subsets; median, baseline 17.1 %", "value": "+8.1%"}, {"measurement": "CD8 Subsets RO+ 27− (EM): Absolute Change in % at Week 8 (med, range)", "setting": "lymphocyte subsets; median, baseline 18.4 %", "value": "+1.0%"}, {"measurement": "CD8 Subsets HLA DR+: Absolute Change in % at Week 8 (med, range)", "setting": "lymphocyte subsets; median, baseline 19.6 %", "value": "+11.6%"}, {"measurement": "CD8 Subsets RO− 27+ (N): Absolute Change in % at Week 8 (med, range)", "setting": "lymphocyte subsets; median, baseline 21.0 %", "value": "−5.1", "unit": "%"}, {"measurement": "CD8 Subsets 57+: Absolute Change in % at Week 8 (med, range)", "setting": "lymphocyte subsets; median, baseline 30.8 %", "value": "−11.0", "unit": "%"}, {"measurement": "CD8 Subsets RO− 27− (E): Absolute Change in % at Week 8 (med, range)", "setting": "lymphocyte subsets; median, baseline 31.8 %", "value": "−6.1", "unit": "%"}, {"measurement": "CD4 Subsets RO− 27+ (N): Absolute Change in % at Week 8 (med, range)", "setting": "lymphocyte subsets; median, baseline 32.6 %", "value": "−6.6", "unit": "%"}, {"measurement": "CD8 Subsets 38+: Absolute Change in % at Week 8 (med, range)", "setting": "lymphocyte subsets; median, baseline 33.4 %", "value": "+19.9%"}, {"measurement": "CD4 Subsets 38+: Absolute Change in % at Week 8 (med, range)", "setting": "lymphocyte subsets; median, baseline 34.5 %", "value": "+4.3%"}, {"measurement": "CD4 Subsets RO+ 27+ (CM): Absolute Change in % at Week 8 (med, range)", "setting": "lymphocyte subsets; median, baseline 41.9 %", "value": "+6.4%"}, {"measurement": "CD4 and CD8 counts", "setting": "lymphocyte subsets", "value": "Significant increases"}, {"measurement": "CD4 and CD8 counts", "setting": "lymphocyte subsets; listed as Pomalidomide", "value": "significant increases"}, {"measurement": "activation (CD38+, HLADR+ and DR+/38+) of CD4 and CD8 T-cells", "setting": "lymphocyte subsets; week 8", "value": "significant increases"}, {"measurement": "senescence (CD57+) of CD4 and CD8 T-cells", "setting": "lymphocyte subsets; week 8", "value": "decreases"}, {"measurement": "accumulation", "setting": "[2]; from day 1 to day 15", "value": "No evidence of accumulation"}, {"measurement": "differences in pharmacokinetics by ART regimen", "setting": "[2]; human, in vivo", "value": "No significant differences"}, {"measurement": "differences in pharmacokinetics by HIV status", "setting": "[2]; human, in vivo", "value": "No significant differences"}, {"measurement": "Tmax", "setting": "[2]; [4]", "value": "2.71 ± 1.73", "unit": "h"}, {"measurement": "half-life", "setting": "[2]; [4]", "value": "7.1 ± 2.48", "unit": "h"}, {"measurement": "Cmax", "setting": "[2]; plasma, across all analyzed doses, cycle 1 day 1 and day 15, 5 mg orally", "value": "61.21 ± 29.30", "unit": "ng/mL"}]}]}
